ChEMBL document CHEMBL1138458, “Fructose-1,6-bisphosphatase inhibitors. 1. Purine phosphonic acids as novel AMP mimics” (J Med Chem, 2009)

Columns and labels:
[1] = target: T1, Fructose-1,6-bisphosphatase 1 (Homo sapiens, UniProt P09467); assay: Inhibition of human liver FBPase expressed in Escherichia coli by spectrophotometry
T1 sequence (P09467 whole entry): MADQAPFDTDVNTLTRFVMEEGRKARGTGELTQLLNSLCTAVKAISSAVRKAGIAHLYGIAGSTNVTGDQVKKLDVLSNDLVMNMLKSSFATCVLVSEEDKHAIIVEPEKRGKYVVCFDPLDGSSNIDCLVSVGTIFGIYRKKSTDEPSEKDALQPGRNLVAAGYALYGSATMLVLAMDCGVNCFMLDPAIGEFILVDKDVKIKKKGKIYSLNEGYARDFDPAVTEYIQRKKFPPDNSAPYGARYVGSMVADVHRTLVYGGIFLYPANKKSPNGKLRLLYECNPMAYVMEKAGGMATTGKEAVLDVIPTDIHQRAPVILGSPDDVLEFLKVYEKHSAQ

Rattus norvegicus [2] = assay: Oral bioavailability in fasted Sprague-Dawley rat assessed as urinary excretion of phosphonic acid up to 300 mg/kg; type: ADME, organism-based, Urine; conditions: in vivo
[3] = target: T2, Fructose-1,6-bisphosphatase 1 (Rattus norvegicus, UniProt P19112); assay: Inhibition of rat liver FBPase
T2 sequence (P19112 whole entry): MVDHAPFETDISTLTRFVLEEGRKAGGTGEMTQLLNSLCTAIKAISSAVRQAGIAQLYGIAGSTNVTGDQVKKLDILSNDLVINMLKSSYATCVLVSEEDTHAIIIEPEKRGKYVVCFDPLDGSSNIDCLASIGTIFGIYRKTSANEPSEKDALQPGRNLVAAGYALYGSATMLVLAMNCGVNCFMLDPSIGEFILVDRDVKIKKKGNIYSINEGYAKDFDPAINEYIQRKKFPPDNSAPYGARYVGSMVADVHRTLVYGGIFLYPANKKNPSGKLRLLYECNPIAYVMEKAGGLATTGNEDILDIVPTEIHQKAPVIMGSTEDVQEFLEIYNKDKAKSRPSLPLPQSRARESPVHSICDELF

Hepatocyte = assay: Inhibition of glucose production in rat primary hepatocytes treated for 15 to 30 mins prior to gluconeogenic substrate dihydroxyacetone addition; type: functional, cell-based
Liver [4] = assay: Drug concentration in overnight-fasted Sprague-Dawley rat liver assessed as {5-[6-Amino-9-(2,2-dimethyl-propyl)-9H-purin-8-yl]-furan-2-yl}- phosphonic acid level at 50 mg/kg, po after 2 hrs; type: ADME, organism-based; set-up: dose 50 mg/kg, route oral; conditions: in vivo
Liver [5] = assay: Drug concentration in overnight-fasted Sprague-Dawley rat liver assessed as {5-[6-Amino-9-(2,2-dimethyl-propyl)-9H-purin-8-yl]-furan-2-yl}- phosphonic acid level at 50 mg/kg, po after 1 hr; type: ADME, organism-based; set-up: dose 50 mg/kg, route oral; conditions: in vivo
[6] = target: T3, Fructose-1,6-bisphosphatase 1 (Homo sapiens) (UniProt P09467)
T3 sequence (whole entry): T1 sequence (P09467 whole entry)
Description: Displacement of [3H]AMP from human liver FBPase

[7] = Inhibition of pig heart AMP deaminase; set-up: species or system Sus scrofa
[8] = Inhibition of New Zealand white rabbit liver phosphofructokinase; set-up: species or system Oryctolagus cuniculus
Adenosine kinase = Adenosine kinase (Homo sapiens, UniProt P55263); assay: Inhibition of human recombinant adenosine kinase expressed in Escherichia coli
Adenosine kinase, sequence (P55263 whole entry): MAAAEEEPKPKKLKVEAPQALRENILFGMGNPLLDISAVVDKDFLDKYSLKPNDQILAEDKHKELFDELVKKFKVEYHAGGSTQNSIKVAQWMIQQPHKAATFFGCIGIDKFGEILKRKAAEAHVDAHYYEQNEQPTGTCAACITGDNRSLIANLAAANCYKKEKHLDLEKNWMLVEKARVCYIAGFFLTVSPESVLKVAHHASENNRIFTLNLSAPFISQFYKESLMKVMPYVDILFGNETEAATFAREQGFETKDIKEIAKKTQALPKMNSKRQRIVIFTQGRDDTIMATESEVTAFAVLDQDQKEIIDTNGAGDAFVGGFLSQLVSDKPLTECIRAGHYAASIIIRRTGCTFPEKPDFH

Rattus norvegicus [9] = assay: Increase in fructose-1,6-bisphosphate level in overnight-fasted Sprague-Dawley rat liver at 20 mg/kg, ip relative to control; type: organism-based; set-up: dose 20 mg/kg, route intraperitoneal; conditions: in vivo
Liver [10] = assay: Drug concentration in overnight-fasted Sprague-Dawley rat liver at 20 mg/kg, ip after 1 hr; type: ADME, organism-based; set-up: dose 20 mg/kg, route intraperitoneal; conditions: in vivo
[11] = Plasma concentration in overnight-fasted Sprague-Dawley rat at 20 mg/kg, ip after 1 hr; type: ADME, organism-based; set-up: dose 20 mg/kg, route intraperitoneal
[12] = target: T4, Glycogen phosphorylase, muscle form (Oryctolagus cuniculus, UniProt P00489); assay: Inhibition of rabbit muscle glycogen phosphorylase
T4 sequence (P00489 whole entry): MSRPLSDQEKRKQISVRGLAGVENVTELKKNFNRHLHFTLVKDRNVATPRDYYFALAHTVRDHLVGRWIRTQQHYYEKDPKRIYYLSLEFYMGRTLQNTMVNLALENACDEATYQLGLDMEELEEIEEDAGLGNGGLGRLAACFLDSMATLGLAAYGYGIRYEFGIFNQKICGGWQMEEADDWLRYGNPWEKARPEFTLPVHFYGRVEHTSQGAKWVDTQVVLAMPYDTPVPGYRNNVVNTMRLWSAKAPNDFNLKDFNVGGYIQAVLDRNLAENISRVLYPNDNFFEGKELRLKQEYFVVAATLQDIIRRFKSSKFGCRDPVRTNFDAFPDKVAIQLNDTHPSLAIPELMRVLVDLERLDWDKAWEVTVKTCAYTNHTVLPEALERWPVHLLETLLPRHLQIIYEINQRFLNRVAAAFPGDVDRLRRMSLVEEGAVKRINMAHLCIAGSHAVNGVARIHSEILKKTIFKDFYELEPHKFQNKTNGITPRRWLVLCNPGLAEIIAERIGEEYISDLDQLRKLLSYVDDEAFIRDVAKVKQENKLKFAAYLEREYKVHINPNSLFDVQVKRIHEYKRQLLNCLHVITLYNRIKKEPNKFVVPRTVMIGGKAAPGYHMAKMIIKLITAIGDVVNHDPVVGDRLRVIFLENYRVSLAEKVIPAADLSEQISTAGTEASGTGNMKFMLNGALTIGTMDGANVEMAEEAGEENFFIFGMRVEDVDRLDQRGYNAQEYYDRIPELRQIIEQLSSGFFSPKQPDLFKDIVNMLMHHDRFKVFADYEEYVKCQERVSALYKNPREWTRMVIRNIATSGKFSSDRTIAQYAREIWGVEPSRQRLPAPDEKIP

Rattus norvegicus [13] = assay: Reduction in blood glucose level in overnight-fasted Sprague-Dawley rat at 20 mg/kg, ip within 1 hr; type: organism-based; set-up: dose 20 mg/kg, route intraperitoneal; scale not given: the % may be the effect or the level left; conditions: in vivo

| SMILES | IC50 [1] [µM] | also measured |
| --- | --- | --- |
| CC(C)(C)Cn1c(-c2ccc(P(=O)(OCOC(=O)C(C)(C)C)OCOC(=O)C(C)(C)C)o2)nc2c(N)ncnc21 | – | F (Rattus norvegicus [2]): 5.3% |
| CSc1nc(N)c2nc(-c3ccc(P(=O)(O)O)o3)n(CC(C)C)c2n1 | – | IC50 [3]: > 20 µM; EC50 (Hepatocyte): > 25 µM |
| Nc1ncnc2c1nc(NCCC(=O)O)n2[C@@H]1O[C@H](CO)[C@@H](O)[C@H]1O | > 100 | – |
| CC(C)C(=O)OCOP(=O)(OCOC(=O)C(C)C)c1ccc(-c2nc3c(N)ncnc3n2CC(C)(C)C)o1 | – | EC50 (Hepatocyte): 3 µM; F (Rattus norvegicus [2]): 8.1%; Drug uptake (Liver [4]): 2 nmol/g; Drug uptake (Liver [5]): 3.5 nmol/g |
| COc1cc2c(c(OC)c1OC)C(=O)OC2OP(=O)(OC1OC(=O)c2c1cc(OC)c(OC)c2OC)c1ccc(-c2nc3c(N)ncnc3n2CCc2ccccc2)o1 (configuration not stated) | – | EC50 (Hepatocyte): 75 µM |
| CC(Cc1nc2c(N)ncnc2n1CCc1ccccc1)[PH](=O)O (configuration not stated) | > 1000 | – |
| CC(C)(C)Cn1c(Cn2ccnc2P(=O)(O)O)nc2c(N)ncnc21 | > 100 | – |
| Nc1ncnc2c1nc(-c1ccc(P(=O)(O)O)o1)n2CCC1CCCCC1 | – | IC50 [3]: 20 µM; EC50 (Hepatocyte): 90 µM; ED50 [6]: 35 µM |
| Nc1ncnc2c1nc(CCC[PH](=O)O)n2CCc1ccccc1 | > 1000 | – |
| NC(=O)c1ncn([C@@H]2O[C@H](COP(=O)(O)O)[C@@H](O)[C@H]2O)c1N | 12 | ED50 [6]: 250 µM |
| Nc1ncnc2c1nc(NCCCP(=O)(O)O)n2[C@@H]1O[C@H](CO)[C@@H](O)[C@H]1O | > 100 | – |
| Nc1ncnc2c1nc(NCP(=O)(O)O)n2[C@@H]1O[C@H](CO)[C@@H](O)[C@H]1O | > 100 | – |
| Nc1ncnc2c1nc(-c1ccc(P(=O)(O)O)o1)n2CCc1ccccc1 | – | IC50 [7]: 6.7 µM; IC50 [3]: 40 µM; EC50 (Hepatocyte): 5 µM; EC50 [8]: > 200 µM; F (Rattus norvegicus [2]): < 5%; IC50 (Adenosine kinase): > 100 µM |
| Nc1ncnc2c1nc(CCO[PH](=O)O)n2CCc1ccccc1 | > 1000 | – |
| Nc1ncnc2c1nc(-c1ccc(P3(=O)OCCSSCCO3)o1)n2CCc1ccccc1 | – | EC50 (Hepatocyte): 250 µM |
| COc1ccc(COP(=O)(OCc2ccc(OC)c(C#N)c2)c2ccc(-c3nc4c(N)ncnc4n3CCc3ccccc3)o2)cc1C#N | – | EC50 (Hepatocyte): > 100 µM |
| Nc1ncnc2c1nc(NCC(=O)O)n2[C@@H]1O[C@H](CO)[C@@H](O)[C@H]1O | > 100 | – |
| CC(=O)OC1CCCC(OP(=O)(OC2CCCC(OC(C)=O)C2)c2ccc(-c3nc4c(N)ncnc4n3CCc3ccccc3)o2)C1 (configuration not stated) | – | EC50 (Hepatocyte): 400 µM |
| CC(C)C(=O)OCOP(=O)(OCOC(=O)C(C)C)c1ccc(-c2nc3c(N)ncnc3n2CCc2ccccc2)o1 | – | EC50 (Hepatocyte): 25 µM |
| Nc1ncnc2c1nc(CCC(=O)O)n2[C@@H]1O[C@H](CO)[C@@H](O)[C@H]1O | > 100 | – |
| CC(C)(CCl)Cn1c(-c2ccc(P(=O)(O)O)o2)nc2c(N)ncnc21 | – | IC50 [3]: > 2 µM; EC50 (Hepatocyte): 7.5 µM |
| CC(C)(CO)Cn1c(-c2ccc(P(=O)(O)O)o2)nc2c(N)ncnc21 | – | IC50 [3]: > 20 µM; EC50 (Hepatocyte): 50 µM |
| Nc1ncnc2c1nc(-c1ccc(C(=O)O)o1)n2CCc1ccccc1 | > 100 | – |
| Nc1ncnc2c1nc(CNCP(=O)(O)O)n2CCc1ccccc1 | > 500 | – |
| CC(C)(C)Cn1c(-c2ccc(P(=O)(O)O)o2)nc2c(N)ncnc21 | – | IC50 [7]: 390 µM; EC50 (Hepatocyte): 90 µM; EC50 [8]: > 100 µM; Activity (Rattus norvegicus [9]): 10; F (Rattus norvegicus [2]): 1.6%; Drug uptake (Liver [10]): 51.3 nmol/g; concentration at 1 h [11]: 38.5 µM; EC50 [12]: > 100 µM; IC50 (Adenosine kinase): > 100 µM; Activity (Rattus norvegicus [13]): 65% |
| Nc1ncnc2[nH]c(NCCP(=O)(O)O)nc12 | > 100 | – |
| Nc1ncnc2c1nc(-c1ccc(P(=O)(O)O)o1)n2C1CCCC1 | – | IC50 [3]: > 20 µM; EC50 (Hepatocyte): 24 µM |
| Nc1ncnc2c1nc(-c1ccc(P(=O)(OCCSSCCO)OCCSSCCO)o1)n2CCc1ccccc1 | – | EC50 (Hepatocyte): > 500 µM |
| Nc1ncnc2c1nc(S(=O)(=O)CCP(=O)(O)O)n2CCc1ccccc1 | > 1000 | – |

The next lines start with results.

| IC50 [1] [µM] | SMILES | also measured |
| --- | --- | --- |
| 100 | Nc1ncnc2c1nc(C(=O)NCP(=O)(O)O)n2CCc1ccccc1 | – |
| 100 | C[C@H]1O[C@@H](n2c(NCCP(=O)(O)O)nc3c(N)ncnc32)[C@H](O)[C@@H]1O | – |
| > 100 | Nc1ncnc2c1nc(/C=C/C(=O)O)n2[C@@H]1O[C@H](CO)[C@@H](O)[C@H]1O | – |
| > 10 | Cn1c(P(=O)(O)O)cnc1-c1nc2c(N)ncnc2n1CC(C)(C)C | – |
| 140 | Nc1ncnc2c1nc(NCCOP(=O)(O)O)n2[C@@H]1O[C@H](CO)[C@@H](O)[C@H]1O | – |
| 50 | O=P(O)(O)c1ccc(-c2nc3c(Cl)ncnc3n2CCc2ccccc2)o1 | – |
| 1.5 | Nc1ncnc2c1nc(-c1ccc(P(=O)(O)O)o1)n2C1CC1 | – |
| 35 | Nc1ncnc2c1nc(NCCP(=O)(O)O)n2Cc1ccc2ccccc2c1 | – |
| 48 | Nc1ncnc2c1nc(-c1ccc(P(=O)(O)O)s1)n2CCc1ccccc1 | – |
| > 10 | CN(C)CC(C)(C)Cn1c(-c2ccc(P(=O)(O)O)o2)nc2c(N)ncnc21 | – |
| 40 | Nc1ncnc2c1nc(CCOP(=O)(O)O)n2CCc1ccccc1 | – |
| 50 | CNc1ncnc2c1nc(-c1ccc(P(=O)(O)O)o1)n2CCc1ccccc1 | – |
| > 10 | CC(C)(C)Cn1c(-c2coc(P(=O)(O)O)c2)nc2c(N)ncnc21 | – |
| 145 | Nc1ncnc2c1nc(SCCP(=O)(O)O)n2CCc1ccccc1 | – |
| 1.6 | CC(C)(C)CCn1c(-c2ccc(P(=O)(O)O)o2)nc2c(N)ncnc21 | – |
| 70 | Nc1ncnc2c1nc(-c1ccc(P(=O)(O)O)o1)n2CC(c1ccccc1)c1ccccc1 | – |
| 1.1 | CSc1nc(N)c2nc(-c3ccc(P(=O)(O)O)o3)n(CC(C)(C)C)c2n1 | IC50 [3]: 4 µM; EC50 (Hepatocyte): 8.5 µM |
| 91 | Nc1ncnc2c1nc(NCCP(=O)(O)O)n2Cc1ccccc1 | – |
| 23 | Nc1ncnc2c1nc(COCP(=O)(O)O)n2CCc1ccccc1 | – |
| 250 | CN(C)c1ncnc2c1nc(-c1ccc(P(=O)(O)O)o1)n2CCc1ccccc1 | – |
| 100 | Nc1ncnc2c1nc(/C=C/CP(=O)(O)O)n2CCc1ccccc1 | – |
| > 10 | Cn1c(-c2nc3c(N)ncnc3n2CC(C)(C)C)ccc1P(=O)(O)O | – |
| 1.5 | CC(C)Cn1c(-c2ccc(P(=O)(O)O)o2)nc2c(N)ncnc21 | IC50 [3]: 7 µM; EC50 (Hepatocyte): 18 µM |
| 100 | Nc1ncnc2c1nc(CCCP(=O)(O)O)n2CCc1ccccc1 | – |
| 150 | Nc1ncnc2c1nc(-c1ccc(S(=O)(=O)O)o1)n2CCc1ccccc1 | – |
| 100 | Nc1ncnc2c1nc(NCCP(=O)(O)O)n2CCc1ccccc1 | – |
| 1.8 | CCn1c(-c2ccc(P(=O)(O)O)o2)nc2c(N)ncnc21 | – |
| 5 | CC(n1c(-c2ccc(P(=O)(O)O)o2)nc2c(N)ncnc21)C(C)(C)C (configuration not stated) | – |
| 5.5 | CC(C)(C)Cn1c(-c2ccc(P(=O)(O)O)o2)nc2c(N)nc(N)nc21 | – |
| 28 | CC(C)Cn1c(-c2ccc(P(=O)(O)O)o2)nc2c(N)nc(S(C)(=O)=O)nc21 | – |
